Experimental data: patent US20090281142A1, “THIAZOLE DERIVATIVE” (ASTELLAS PHARMA INC., priority 2005, published 2009)

Key:
[1] = target: T1, recombinant human liver GK (GST-hGK2) (Homo sapiens, UniProt P35557); assay: Measurement of GK activation; format: biochemical; details: 10 min; 10 μM test agent, 5 mM glucose, increase of absorbance (340 nm) in first 10 minutes relative to DMSO control
T1 construct: cloning of ORF (open reading frame) was carried out by the following procedure based on AK122876.1; made in house; host or cells: E. coli
T1 sequence (P35557 1-466 isoform P35557-2): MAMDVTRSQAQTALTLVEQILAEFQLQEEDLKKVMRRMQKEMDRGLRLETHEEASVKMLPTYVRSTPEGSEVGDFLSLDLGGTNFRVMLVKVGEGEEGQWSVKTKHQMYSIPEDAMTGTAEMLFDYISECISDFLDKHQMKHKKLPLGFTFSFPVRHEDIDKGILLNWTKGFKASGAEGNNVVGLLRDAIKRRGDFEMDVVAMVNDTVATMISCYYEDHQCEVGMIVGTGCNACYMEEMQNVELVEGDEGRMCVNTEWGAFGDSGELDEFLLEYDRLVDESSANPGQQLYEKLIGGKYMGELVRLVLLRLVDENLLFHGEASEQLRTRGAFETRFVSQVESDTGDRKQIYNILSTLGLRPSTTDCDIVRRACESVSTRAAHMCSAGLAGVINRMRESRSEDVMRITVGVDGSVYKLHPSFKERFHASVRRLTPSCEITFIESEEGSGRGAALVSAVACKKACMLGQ
Method: Measurement of the GK activation by test agents was carried out in accordance with the method described in Science 301: 370-373, 2003, and by partially modifying this. The GK activity was measured as a change in absorbance based on the amount of NADPH which is converted from NADP (nicotinamide adenine dinucleotide phosphate) when glucose 6-phosphate produced by GK using glucose as the substrate is […] glucose-6-phosphate dehydrogenase.
Regarding the recombinant human liver GK (GST-hGK2) to be used in this assay, it was used by expressing as GST (glutathione S transferase)-fusion protein in E. coli and purifying by a Glutathione Sepharose column.
Regarding the sequence of glucokinase isoform 2, cloning of ORF (open reading frame) was carried out by the following procedure based on AK122876.1 (accession number). Using pME18S-FL3-Glucokinase isoform 2 as the template, PCR (polymerase chain reaction) was carried out using 5′-[…]-3′(SEQ ID NO:1) as the 5′ primer and 5′-[…]-3′ (SEQ ID NO:2) as the 3′ primer, and the PCR product was TA-cloned into pGEM-T easy vector. The sequence of this clone was confirmed by carrying out its sequencing. Thereafter, a fragment digested with EcoRI and XhoI was ligated to a vector pGEX-5X-1 digested in the same manner to prepare pGEX-human Glucokinase 2.
Regarding the enzyme reaction, the measurement was carried out at 27° C. using a 96 well flat bottom plate. As the enzyme mixed liquid, 25 mM HEPES pH 7.4; 25 mM KCl; 2 mM MgCl2; 1 mM ATP; 0.1% BSA; 1 mM DTT; 0.8 mM NADP; 2.5 U/ml glucose-6-phosphate dehydrogenase; GST-hGK2 (all in final concentration, however, the amount of GST-hGK2 was adjusted in such a manner that increase of absorbance of the DMSO control in 10 minutes (ΔOD) becomes about 0.12) was prepared. The enzyme mixed liquid was dispensed in 89 μl portions into the aforementioned plate, and a test agent dissolved in DMSO or the DMSO control was added thereto in 1 μl portions. Subsequently, glucose (5 mM in final concentration) was added as the substrate solution in 10 μl portions and the reaction was started at 27° C.
After commencement of the reaction, the absorbance was measured at a wavelength of 340 nm for 15 minutes at intervals of about 30 seconds, and the GK activation of each compound was calculated from the increase of absorbance during the first 10 minutes (ΔOD). Index of the GK activation of each test agent was calculated from the following formula as the GK activation (%).
GK activation (%)=[(ΔODTest)−(ΔODCont)]/(ΔODCont)×100
ΔODTest: ΔOD at 10 μM test agent
ΔODCont: ΔOD of DMSO control

ICR mice = assay: Action upon high blood glucose level after oral glucose loading in ICR mice; format: in vivo; details: 3 mg/kg oral, fasted ICR mice, AUC of blood glucose from administration until 2 hours after oral glucose loading (2 g/kg) vs solvent control
Method: After overnight fasting, body weights of ICR mice (N=5) were measured. Each test compound was dissolved in Cremophor solvent (Cremophor:DMSO:Water 5:5:90, v/v/v) to a concentration of 0.3 mg/ml. To each mouse was orally administered 10 ml/kg of the agent liquid (corresponds to the test compound of 3 mg/kg) or 10 ml/kg of the solvent control. Just before the administration of the test compound, about 60 μl of blood was collected from the venous plexus of the fundus of the eye using a capillary. After 30 minutes of the administration of the test compound, 200 mg/ml of glucose aqueous solution was orally administered at a dose of 10 ml/kg (corresponds to 2 g/kg). Just before the administration of glucose, about 60 μl of blood was collected from the venous plexus of the fundus of the eye using a capillary. Blood was collected in the same manner after 0.5, 1 and 2 hours of the glucose administration. Blood plasma was separated from the thus collected blood to measure the blood glucose level. AUC of the blood glucose level after the administration of the test compound until 2 hours after the glucose loading was compared with AUC of the solvent control group within the same period of time.

[2] = system: db/db (C57BL/KsJ-db/db) mice; assay: Action upon high blood glucose level after oral glucose loading in db/db mice; format: in vivo; details: 10 mg/kg oral, fasted db/db mice, from administration until 2 hours after oral glucose loading (2 g/kg)
Method: After overnight fasting, body weights of db/db (C57BL/KsJ-db/db) mice (N=5) were measured. Each test compound was dissolved in Cremophor solvent (Cremophor:DMSO:Water 5:5:90, v/v/v) to a concentration of 1 mg/ml. To each db/db mouse was orally administered 10 ml/kg of the agent liquid (corresponds to the test compound of 10 mg/kg) or 10 ml/kg of the solvent control. Just before the administration of the test compound, about 60 μl of blood was collected from the venous plexus of the fundus of the eye using a capillary. After 30 minutes of the administration of the GK activator, 200 mg/ml of glucose aqueous solution was orally administered at a dose of 10 ml/kg (corresponds to 2 g/kg). Just before the administration of glucose, about 60 μl of blood was collected from the venous plexus of the fundus of the eye using a capillary. Blood was collected in the same manner after 0.5, 1 and 2 hours of the glucose administration. Blood plasma was separated from the thus collected blood to measure the blood glucose level. AUC of the blood glucose level after the administration of the test compound until 2 hours after the glucose loading was compared with AUC of the solvent control group within the same period of time.

Structure (SMILES): O=C(Nc1nc(C(O)CO)cs1)/C(=C/C1CCCC1)c1ccc(S(=O)(=O)C2CC2)cc1 (stereo not drawn) [Ex 45, (2E)-3-cyclopentyl-2-[4-(cyclopropylsulfonyl)phenyl]-N-[4-(1,2-dihydroxyethyl)-1,3-thiazol-2-yl]acrylamide]
- activation at 10 µM [1]: 249%
- Blood glucose lowering ratio (%) (ICR mice): 23%
- AUC of the blood glucose level lowered in comparison with AUC of the solvent control group [2]: 39%
